These results are taken from patent US20100040679A1, “Compositions for Reducing Nicotine Withdrawal Symptoms and/or Tobacco Usage” (priority 2006, published 2010).

SMILES strings stand for the structures.

For data set [1], the system named is nicotine dependent rats. Put plainly: mecamylamine-precipitated nicotine abstinence signs in nicotine dependent rats. The data set is classed as in vivo, Sprague-Dawley rats. Conditions: 1 mg/kg subcutaneous; 30 minutes; FIG. 2. As for the experimental part: A study was conducted to compare the effects of low doses of dextromethorphan (1 mg/kg) alone, cotinine (1 mg/kg) alone, and a dextromethorphan plus cotinine combination (1 mg/kg each) versus placebo (saline) for their effect on nicotine dependence. The subjects were 30 male Sprague-Dawley rats, weighing between 282-372 grams each. All subjects were implanted subcutaneously with an Alza 2ML1 osmotic minipump under aseptic conditions and halothane anesthesia.
All subjects were rendered nicotine dependent by seven days infusion with 9 mg/kg/day nicotine bitartrate (3.15 mg/kg expressed as the base) in saline from the subcutaneous minipump. On the 7th day of infusion, each subject received two subcutaneous injections. Group 1 (n=8) received two injections of saline vehicle only. Group 2 (n=7) received a subcutaneous injection of saline and an subcutaneous injection of 1 mg/kg cotinine in saline. Group 3 (n=8) received a subcutaneous injection of saline and a subcutaneous injection of 1 mg/kg dextromethorphan. Group 4 (n=7) received a subcutaneous injection of 1 mg/kg cotinine and 1 mg/kg dextromethorphan. […] These low doses were intended to prevent any ceiling effect which may have masked the benefit of adding a second medication. The injection volumes in every case were […]. […]

The conditions of data set [2]: rat brain after peripheral nicotine administration; Dwoskin et al 1999; cited from earlier work.
In data set [3] the test system is mecamylamine-precipitated nicotine withdrawal syndrome. The data set can be described thus: previous study of mecamylamine-precipitated nicotine withdrawal syndrome. It is filed as in vivo. Conditions: dose 1 mg/kg, given alone. As for the experimental part: All subjects were rendered nicotine dependent by seven days infusion with 9 mg/kg/day nicotine bitartrate (3.15 mg/kg expressed as the base) in saline from the subcutaneous minipump. On the 7th day of infusion, each subject received two subcutaneous injections. Group 1 (n=8) received two injections of saline vehicle only. Group 2 (n=7) received a subcutaneous injection of saline and an subcutaneous injection of 1 mg/kg cotinine in saline. Group 3 (n=8) received a subcutaneous injection of saline and a subcutaneous injection of 1 mg/kg dextromethorphan. Group 4 (n=7) received a subcutaneous injection of 1 mg/kg cotinine and 1 mg/kg dextromethorphan. […] These low doses were intended to prevent any ceiling effect which may have masked the benefit of adding a second medication. The injection volumes in every case were 1 mg/kg.

The conditions of data set [4]: humans; estimated by Benowitz 1983; cited from earlier work.

Turning to `CN1C(=O)CC[C@H]1c1cccnc1` [cotinine], the “Miscellaneous Less-Frequent Signs (category of nicotine abstinence signs)” value in data set [1] is “tied for lowest”. For the same compound, in data set [2], the “abundance as nicotine metabolite in brain” value is “most abundant metabolite in rat brain”. In addition, the “effects in reducing mecamylamine-precipitated nicotine withdrawal syndrome” value in data set [3] is reported as “only minimal effects”.
For `COc1ccc2c(c1)[C@]13CCCC[C@@H]1[C@H](C2)N(C)CC3` [dextromethorphan, reference compound], the “effects in reducing mecamylamine-precipitated nicotine withdrawal syndrome” value in data set [3] is “only minimal effects”.
`CN1CCCC1c1cccnc1` (centres unmarked) [nicotine]: the “systemically absorbed nicotine metabolized to cotinine” value in data set [4] is 86%.
